One test deals with C57BL/6 blastocysts. Kind of test: Derivation of ES cell lines from C57BL/6 blastocysts in medium with MEK inhibitor. The format is cell-based, mouse. The settings on record: for Efficiency to derive ES lines / Number of established ES lines: C57BL/6, PD98059 50 then 25 micromolar, 18 blastocysts, UO126 10 then 4 micromolar, 40 blastocysts, 39° C; for higher efficiency of ES cell line derivation in the presence of the MEK inhibitor versus standard conditions: compared with standard conditions (Table 1). The protocol:
ES cell derivation was essentially performed as described by Hogan et al. (Manipulating the mouse embryo, CSHL Press 1994, pp253-89), except that cell culture was performed at 39° C. instead of 37° C. C57BL/6 (Janvier, France), 129SvEv/Tac (Taconic M&B, Denmark) or C57BL/6-APCMin (Jackson Laboratories, USA) male and female mice were mated to obtain blastocysts from fertilized females. The C57BL/6-APCMin mouse strain harbours a spontaneous mutation in the APC tumor suppressor gene (Su L K et al (1992) Science 256:668-670) and provides a genetic model for human hereditary colon cancer. Plug positive females were set aside, and 3 days later blastocysts were isolated by flushing their uteri. The blastocysts were further cultured overnight in CZB medium (Chatot et al. (1990) Biol. Reprod. 42:432-440) and then transferred into 12-well tissue culture plates (1 blastocyst per well), precoated with a monolayer of Mitomycin-C inactivated primary mouse embryonic fibroblasts, in standard ES cell culture medium (“standard conditions”) (Torres and Kuehn, Laboratory protocols for conditional gene targeting, Oxford University Press 1997), or in standard medium supplemented with the MEK inhibitor PD 98059 (NEB Biolabs) (50 micromolar concentration, diluted from a 50 millimolar stock in DMSO stored at −20° C.) or with the MEK inhibitor UO126 (10 micromolar concentration; NEB Biolabs). These cultures were incubated in a tissue culture incubator (Heraeus) for 6 days at 39° C. in a 10% CO2 atmosphere. The outgrown inner cell mass of each blastocyst was isolated with a pipette tip under low power magnification, transferred into a 50 microliter drop of Trypsin solution and incubated at 39° C. for 5-10 minutes. This cell clump was further dissociated by pipetting, the cells were transferred into tissue culture dishes and further propagated at 39° C. using standard ES cell culture conditions (Torres and Kuehn 1997, supra), with and without PD98059 (50 micromolar) or UO126 (10 micromolar). After the initial establishment of ES cell lines propagated in the presence of PD98059 (6 days after the first dissociation) the concentration of PD98059 was reduced to 25 micromolar, the concentration of UO 126 was reduced to 4 micromolar, and the cells were further propagated. The C57BL/6 line Bruce4 (Kontgen et al, (1993) Int Immunol. 5:957-964) was grown under standard conditions at 37° C.
(§1) The sex of the cell lines was determined through Southern blot hybridisation of genomic DNA using a detection probe (pY353) specific to a Y-chromosome specific repeat (Bishop C E and Hatat D. (1987) Nucleic Acids Res 15, 2959-2969).
For the karyotype analysis of ES cell clones, 4×10^6 cells were cultured for 1 hour in the presence of 0.2 μg/ml Demicolchicin (Sigma), trypsinised, resuspended in a hypotonic (0.56%) KCl solution and incubated for 8 minutes at room temperature. The swollen cells were sedimented by centrifugation, resuspended in freshly prepared fixative (3:1 mixture of ethanol/glacial acetic acid) and subsequently washed 2 times in fixative. Finally, the cells were resuspended in 0.5 ml fixative and dropped on glass slides precleaned with ethanol/acetic acid (19/1). After air drying, the metaphase spreads were stained for 5 minutes in a 2% solution of Giemsa's stain (Merck), washed in water, and air-dried. The chromosome numbers of 20 suitable metaphase spreads were counted at 1000× magnification under oil immersion.

Test [1] relates to C57BL/6 ES cell lines (Apcmin mutant or Rosa(lacZ) knock-in). Kind of test: Production of genetically engineered and mutant inbred ES mice by tetraploid blastocyst injection. The format is in vivo, mouse. Also on record: respirating pups efficiency: concentration or dose not given beside the values. As for the experimental part:
(§2) Production of mice by tetraploid embryo complementation has been previously described (Eggan et al. (2001) PNAS 98:6209-6214). Briefly, embryo culture was carried out in microdrops on standard bacterial petri dishes (Falcon) under mineral oil (Sigma). Modified CZB media (Chatot et al, Supra) was used for embryo culture unless otherwise noted. Hepes buffered CZB was used for room temperature operations. After administration of hormones, superovulated B6D2F1 females were mated with B6D2F1 males. Fertilized zygotes were isolated from the oviduct and any remaining cumulus cells were removed with hyluronidase. After overnight culture, two-cell embryos were electrofused to produce one cell tetraploid embryos using a CF150-B cell fusion instrument from BLS (Budapest, Hungary) according to the manufacturers instructions. Embryos that had not undergone membrane fusion within 1 hour were discarded. Embryos were then cultured in vitro to the blastocyst stage. For microinjection, 5-6 blastocysts were placed in a drop of DMEM with 15% FCS under mineral oil. A flat tip, piezo actuated microinjection-pipette with an internal diameter of 12-15 μm was used to inject 15 ES cells into each blastocyst. After recovery, ten injected blastocysts were transferred to each uterine horn of 2.5 days post coitum, pseudopregnant NMRI females that had been mated with vasectomized males. For cesarian derivation, recipient mothers were sacrificed at E 19.5 and pups were quickly removed. Newborns that were alive and respirating were cross-fostered to lactating females. Three days later, the litters were controlled, and pups alive by that time were counted as surviving pups.
In order to generate inbred ES mice which harbour genetic alterations we pursued two different strategies. In the first protocol ES cell lines that were established and grown in media with UO 126 (see Example I) and which harbour the C57BL/6-APCMin mutation were injected into tetraploid blastocysts. […] In the second protocol the C57BL/6 ES cell line ESAR-B6-PD.4 was genetically modified in a predetermined manner through homologous recombination using a gene targeting vector. This vector (Rosa(lacZ) knock-in) introduces a beta-galactosidase reporter gene in conjunction with a selectable hygromycin resistance gene into the endogenous Rosa26 locus of the ES cell genome (Seibler et al., Nucleic Acids Res. 31, e12, 2003). This gene targeting vector was electroporated into ESAR-B6-PD4 cells exactly as described (Seibler et al., Nucleic Acids Res. 31, e12, 2003) and hygromycin resistant ES cell colonies were selected, isolated and further expanded. The genomic DNA of resistant colonies was isolated and tested by Southern blot analysis for the occurrence of a homologous recombination event in one of the Rosa26 alleles. Cells from one of the recombined ES cell clones (ESAR-B6-PD.4-R9 A-F2) was injected into tetraploid blastocysts.

Another test concerns C57BL/6 ES cell lines. Kind of test: ES mouse production by injection of C57BL/6 inbred ES cells into tetraploid blastocysts. The settings on record: for Number of respirating pups / respirating pups efficiency: E 19.5; for Number of surviving pups / surviving pups efficiency: alive three days later. The format is in vivo. The protocol: as §2
In another test the test system is 129SvEv/Tac blastocysts. Nature of the test: Derivation of ES cell lines from 129SvEv/Tac blastocysts in medium with MEK inhibitor. In kind it is cell-based, mouse. Particulars: PD98059 50 then 25 micromolar, 12 blastocysts, 39° C. As for the experimental part:
ES cell derivation was essentially performed as described by Hogan et al. (Manipulating the mouse embryo, CSHL Press 1994, pp253-89), except that cell culture was performed at 39° C. instead of 37° C. C57BL/6 (Janvier, France), 129SvEv/Tac (Taconic M&B, Denmark) or C57BL/6-APCMin (Jackson Laboratories, USA) male and female mice were mated to obtain blastocysts from fertilized females. The C57BL/6-APCMin mouse strain harbours a spontaneous mutation in the APC tumor suppressor gene (Su L K et al (1992) Science 256:668-670) and provides a genetic model for human hereditary colon cancer. Plug positive females were set aside, and 3 days later blastocysts were isolated by flushing their uteri. The blastocysts were further cultured overnight in CZB medium (Chatot et al. (1990) Biol. Reprod. 42:432-440) and then transferred into 12-well tissue culture plates (1 blastocyst per well), precoated with a monolayer of Mitomycin-C inactivated primary mouse embryonic fibroblasts, in standard ES cell culture medium (“standard conditions”) (Torres and Kuehn, Laboratory protocols for conditional gene targeting, Oxford University Press 1997), or in standard medium supplemented with the MEK inhibitor PD 98059 (NEB Biolabs) (50 micromolar concentration, diluted from a 50 millimolar stock in DMSO stored at −20° C.) or with the MEK inhibitor UO126 (10 micromolar concentration; NEB Biolabs). These cultures were incubated in a tissue culture incubator (Heraeus) for 6 days at 39° C. in a 10% CO2 atmosphere. […]
as §1
(§3) For the karyotype analysis of ES cell clones, 4×10^6 cells were cultured for 1 hour in the presence of 0.2 μg/ml Demicolchicin (Sigma), trypsinised, resuspended in a hypotonic (0.56%) KCl solution and incubated for 8 minutes at room temperature. […] The chromosome numbers of 20 suitable metaphase spreads were counted at 1000× magnification under oil immersion.

For test [2], the system named is 129 ES cell lines (129S6/SvEvTac). Nature of the test: ES mouse production by injection of 129 inbred ES cells into tetraploid blastocysts. In kind it is in vivo. Particulars: ES line ESAR-S6-PD.4 (129S6/SvEvTac) grown with PD98059, 335 injected tetraploid blastocysts. The protocol:
as §2

For test [3], the system named is undifferentiated ES cells. Particulars: added to the culture medium; Burdon et al. (1999), WO 0015764; cited from earlier work.
In test [4] the test system is C57BL/6-APCMin blastocysts. Particulars: UO126 10 then 4 micromolar, 33 blastocysts, 39° C. The protocol: ES cell derivation was essentially performed as described by Hogan et al. (Manipulating the mouse embryo, CSHL Press 1994, pp253-89), except that cell culture was performed at 39° C. instead of 37° C. C57BL/6 (Janvier, France), 129SvEv/Tac (Taconic M&B, Denmark) or C57BL/6-APCMin (Jackson Laboratories, USA) male and female mice were mated to obtain blastocysts from fertilized females. The C57BL/6-APCMin mouse strain harbours a spontaneous mutation in the APC tumor suppressor gene (Su L K et al (1992) Science 256:668-670) and provides a genetic model for human hereditary colon cancer. Plug positive females were set aside, and 3 days later blastocysts were isolated by flushing their uteri. […]
as §1, §3

[5] abbreviates: Rosa(lacZ) knock-in ES clone ESAR-B6-PD.4 R9 B-G12 (C57BL/6 J) with PD98059, 162 injected tetraploid blastocysts.
The mark [6] stands for this setting: ES line ESAR-B6-PD.13 (C57BL/6J) grown with PD98059, 180 injected tetraploid blastocysts.
The mark [7] stands for this setting: ES line ESAR-B6-PD.3 (C57BL/6J) grown with PD98059, 372 injected tetraploid blastocysts.
The mark [8] stands for this setting: ES line ESAR-B6-PD.4 (C57BL/6J) grown with PD98059, 329 injected tetraploid blastocysts.
Setting [9] is: Sum of three C57BL/6 ES lines grown with PD98059, 881 injected tetraploid blastocysts.
The mark [10] stands for this setting: ES line ESAR-APC 3 UO (C57BL/6 J Apcmin) grown with UO126, 405 injected tetraploid blastocysts.
Setting [11] is: ES line ESAR-APC 9 UO (C57BL/6 J Apcmin) grown with UO126, 228 injected tetraploid blastocysts.
The mark [12] stands for this setting: Sum of two C57BL/6 J Apcmin ES lines grown with UO126, 633 injected tetraploid blastocysts.

The values that follow come from patent US20030204862A1, “Inbred embryonic stem-cell derived mice” (priority 2002, published 2003).

Structures are written as SMILES. Values joined by “and” are separate entries in the source; they are usually repeats but may differ in a detail not shown here. Identical values can stand only once.

With `COc1cccc(-c2cc(=O)c3ccccc3o2)c1N` [PD98059, 2′-amino-3′-methoxyflavone], the “Efficiency to derive ES lines” value came to 61% in the test on C57BL/6 blastocysts, 61% in the test with C57BL/6 blastocysts (listed as PD 98059), 75% in the test with 129SvEv/Tac blastocysts and 75% in the test with 129SvEv/Tac blastocysts (listed as PD 98059). Besides, the entries for the “Number of established ES lines” value in the test with C57BL/6 blastocysts and with 129SvEv/Tac blastocysts were 11 and 9, respectively. Further, in the test with C57BL/6 blastocysts, the “higher efficiency of ES cell line derivation in the presence of the MEK inhibitor versus standard conditions” value was found to be 5 fold. Besides, the “Number of respirating pups” value was determined as 4 in test [1] (setting [5]); 4 in the test on C57BL/6 ES cell lines (setting [6]); 8 with C57BL/6 ES cell lines (setting [7]); 11 in the test with C57BL/6 ES cell lines (setting [8]); 23 with C57BL/6 ES cell lines (setting [9]); 29 in test [2] (E 19.5). In addition, the respirating pups efficiency in test [1] (setting [5]) is 2.47%; in the test on C57BL/6 ES cell lines (setting [6]) it was 2.22%; in the test with C57BL/6 ES cell lines (setting [7]), 2.15%; with C57BL/6 ES cell lines (setting [8]) it was 3.34%; in the test on C57BL/6 ES cell lines (setting [9]), 2.6% and 2.61%; in test [2] (E 19.5), 8.66%. The “Number of surviving pups” value in the test with C57BL/6 ES cell lines (setting [6]) is on record as 0; with C57BL/6 ES cell lines (setting [7]) it was 1; in the test with C57BL/6 ES cell lines (setting [8]), 4; in the test on C57BL/6 ES cell lines (setting [9]), 5; in test [2] (alive three days later), 15. The surviving pups efficiency worked out at 0.00% with C57BL/6 ES cell lines (setting [6]); 0.27% in the test on C57BL/6 ES cell lines (setting [7]); 1.22% with C57BL/6 ES cell lines (setting [8]); 0.57% with C57BL/6 ES cell lines (setting [9]); 4.48% in test [2] (alive three days later). Further, the “effect on growth of undifferentiated ES cells” value in test [3] is on record as “enhances the growth of undifferentiated ES cells”.
For the molecule `N#CC(=C(/N)Sc1ccccc1N)/C(C#N)=C(/N)Sc1ccccc1N` [UO126, bis[amino[(2-aminophenyl)thio]methylene]butanedinitrile], the “Efficiency to derive ES lines” value in the test with C57BL/6 blastocysts turned out to be 80%; with C57BL/6 blastocysts (listed as UO 126), 80%; in test [4] it was 36%. The “Number of established ES lines” value with C57BL/6 blastocysts worked out at 32; in test [4], 12. The “higher efficiency of ES cell line derivation in the presence of the MEK inhibitor versus standard conditions” value in the test on C57BL/6 blastocysts is reported as 5 fold. The “Number of respirating pups” value in test [1] (setting [10]) amounted to 11; in test [1] (setting [11]), 1; in test [1] (setting [12]), 12. In addition, the respirating pups efficiency in test [1] (setting [10]) stood at 2.72%; in test [1] (setting [11]), 0.44%; in test [1] (setting [12]), 1.90%; in test [1] (Sum of two C57BL/6 J Apcmin ES lines grown with UO126, 633 injected tetraploid blastocysts, listed as UO 126), 1.9%.
